According to US10030016B2 (Sunesis Pharmaceuticals, Inc., priority 2009, dated 2018):
Where a name gives a salt, the structure may show the parent alone. Read-outs that look alike come from different tables or passages of the source.

How the values were obtained:
PDK1 = PDK1 (Homo sapiens (Human), UniProt O15530); test: PDK1 kinase assay (coupled PDK1/AKT/FAM-crosstide assay, IMAP fluorescence polarization); type: biochemical
In short: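 Inhibition is derived by 4-parameter fitting of ΔmP from an IMAP fluorescence polarization read of FAM-crosstide (100 nM) phosphorylation. The cascade ran 30 min at 25 °C with 40 μM ATP, using insect-cell GST-PDK1 51-359 (0.75 nM) driving 10 nM unphosphorylated AKT2 140-467-PIFtide fusion.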

[1] = test system: phospho-akt (Thr308) in PC-3 cells; test: Inhibition of phospho-akt (Thr308) in PC-3 cells, MSD phospho-akt 308 ELISA kit; type: cell-based; conditions: Homo sapiens, 2 hours, no serum, read-out: EC50
In short: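 Serum-free 2 h compound exposure of overnight-seeded PC-3 cells, threefold dilution series; lysates analysed on blocked MSD plates (3% BSA) for Thr308-phosphorylated Akt, normalised between DMSO and 5 μM wortmannin wells.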

[2] = inhibition of phospo-PDK1 in vitro
[3] = inhibition of P308 Akt in PC-3 cells, MSD
[4] = inhibition of P308 Akt in PC-3 cells using MSD
[5] = PC-3, 2 h, inhibition of P308 Akt in PC-3 cells using MSD

Chain of PDK1 (O15530 51-359): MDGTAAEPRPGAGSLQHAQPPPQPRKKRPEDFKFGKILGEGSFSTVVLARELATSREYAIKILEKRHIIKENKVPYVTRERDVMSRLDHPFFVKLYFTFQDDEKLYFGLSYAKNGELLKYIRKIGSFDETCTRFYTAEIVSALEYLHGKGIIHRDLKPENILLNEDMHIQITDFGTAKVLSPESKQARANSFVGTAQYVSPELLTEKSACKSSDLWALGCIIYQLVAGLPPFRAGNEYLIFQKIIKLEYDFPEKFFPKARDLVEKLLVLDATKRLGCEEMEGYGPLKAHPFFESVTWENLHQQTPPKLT

Row | Compound | IC50 (PDK1; [2]) | IC50 (PDK1; inhibition of PDK1 in vitro) | EC50 [1, 4] | other results
1 | Nc1ncnc2ccc(-c3ccc(CNc4ncc(NC(=O)C(F)(F)F)cc4C(=O)NCc4ccc(F)c(F)c4)s3)cc12 [Example 8.5.6, 2-({[5-(4-aminoquinazolin-6-yl)thiophen-2-yl]methyl}amino)-N-(3,4-difluorobenzyl)-5-[(trifluoroacetyl)amino] pyridine-3-carboxamide] | 100 to 1000 nM | – | – | EC50 [1, 3]: 1000 to 10000 nM
2 | C[C@H](NC(=O)c1cccnc1NCc1ccc(-c2ccc3ncnc(N4CCC4)c3c2)s1)c1ccc(F)c(F)c1 [Example 387, 2-{[5-(4-Azetidin-1-yl-quinazolin-6-yl)-thiophen-2-ylmethyl]-amino}-N-[(S)-1-(3,4-difluoro-phenyl)-ethyl]-nicotinamide] | – | < 100 nM | 1000 to 10000 nM | –
3 | O=C(NCc1ccc(F)c(F)c1)c1cccnc1NCc1ccc(-c2ccc3ncnc(NCC(F)(F)F)c3c2)s1 [Example 4.22, N-(3,4-difluorobenzyl)-2-(((5-(4-(2,2,2-trifluoroethylamino)quinazolin-6-yl)thiophen-2-yl)methyl)amino)nicotinamide] | 100 to 1000 nM | – | – | EC50 [1, 3]: 1000 to 10000 nM
4 | CCNS(=O)(=O)c1cnc(NCc2ccc(-c3ccc4ncnc(N)c4c3)s2)c(C(=O)NC)c1 [Example 8.6.16, 2-(((5-(4-aminoquinazolin-6-yl)thiophen-2-yl)methyl)amino)-5-(N-ethylsulfamoyl)-N-methylnicotinamide] | > 5000 nM | – | – | EC50 [1, 3]: > 10000 nM
5 | COc1cc(NC(=O)c2cccnc2NCc2ccc(-c3ccc4ncnc(N)c4c3)s2)cc(C(F)(F)F)c1 [Example 3.52, 2-({[5-(4-aminoquinazolin-6-yl)thiophen-2-yl]methyl}amino)-N-[3-methoxy-5-(trifluoromethyl)phenyl]pyridine-3-carboxamide (TFA salt)] | > 5000 nM | – | – | EC50 [1, 3]: > 10000 nM
6 | CNC(=O)c1cc(S(=O)(=O)NCCO)cnc1NCc1ccc(-c2ccc3ncnc(N)c3c2)s1 [Example 342] | – | > 5000 nM | > 10000 nM | –
7 | CNc1ncc2cc(O[C@@H](C)CNc3ncc(C#N)nc3C(=O)N[C@@H](C)c3ccc(F)c(F)c3)ccc2n1 [Example 254, 6-cyano-N-((S)-1-(3,4-difluorophenyl)ethyl)-3-((S)-2-(2-(methylamino)quinazolin-6-yloxy)propylamino)pyrazine-2-carboxamide] | – | 100 to 1000 nM | – | EC50 [1, 5]: 1000 to 10000 nM
8 | O=C(NCc1ccc(F)c(F)c1)c1cccnc1NCc1ccc(-c2cnc3[nH]ncc3c2)s1 [Example 2.32, 2-(((5-(1H-pyrazolo[3,4-b]pyridin-5-yl)thiophen-2-yl)methyl)amino)-N-(3,4-difluorobenzyl) nicotinamide] | < 100 nM | – | – | EC50 [1, 3]: 1000 to 10000 nM
9 | Nc1ncnc2ccc(-c3ccc(CNc4ncccc4C(=O)NCc4cc(F)c(F)cc4F)s3)cc12 [Example 3.11, 2-({[5-(4-aminoquinazolin-6-yl)thiophen-2-yl]methyl}amino)-N-(2,4,5-trifluorobenzyl)pyridine-3-carboxamide (TFA salt)] | < 100 nM | – | – | EC50 [1, 3]: > 10000 nM
10 | CNc1ncc2cc(C#CCNc3ncc(C(F)(F)F)cc3C(=O)NCc3ccc(F)c(F)c3)ccc2n1 [Example 256, N-(3,4-difluorobenzyl)-2-(2-(2-(methylamino)quinazolin-6-yl)prop-2-ynylamino)-5-(trifluoromethyl)nicotinamide] | – | < 100 nM | 1000 to 10000 nM | –
11 | O=C(NCc1ccc(C(F)(F)F)cc1)c1cccnc1NCc1cccc(-c2c[nH]c3ncccc23)c1 [Example 1.7, 2-(3-(1H-pyrrolo[2,3-b]pyridin-3-yl)benzylamino)-N-(4-(trifluoromethyl)benzyl) nicotinamide] | 1000 to 5000 nM | – | – | EC50 [1, 3]: > 10000 nM
12 | Cc1[nH]c(/C=C2\C(=O)Nc3cc(/C=C/CNc4ncccc4C(=O)NCc4ccc(F)c(F)c4)ccc32)c(C)c1C(=O)N1CCOCC1 [Example 15.18, N-(3,4-Difluoro-benzyl)-2-((E)-3-{3-[1-[3,5-dimethyl-4-(morpholine-4-carbonyl)-1H-pyrrol-2-yl]-meth-(Z)-ylidene]-2-oxo-2,3-dihydro-1H-indol-6-yl}-allylamino)-nicotinamide] | < 100 nM | – | – | EC50 [1, 3]: < 1000 nM

Second part, led by results:

Row | IC50 (PDK1; [2]) | IC50 (PDK1; inhibition of PDK1 in vitro) | EC50 [1, 4] | Compound | other results
13 | – | < 100 nM | > 10000 nM | C[C@H](NC(=O)c1cc(C#N)cnc1NCc1ccc(-c2cnc(N)c(C(=O)O)c2)cc1)c1ccc(F)cc1 [Example 148, (S)-2-amino-5-(4-((5-cyano-3-(1-(4-fluorophenyl)ethylcarbamoyl)pyridin-2-ylamino)methyl)phenyl) nicotinic acid] | –
14 | – | < 100 nM | < 1000 nM | COCCCn1cc(-c2ccc(CNc3ncc(C#N)nc3C(=O)N[C@@H](C)c3ccc(F)c(F)c3)cc2)c2c(N)ncnc21 [Example 317, (S)-3-(4-(4-amino-7-(3-methoxypropyl)-7H-pyrrolo[2,3-d]pyrimidin-5-yl)benzylamino)-6-cyano-N-(1-(3,4-difluoro-phenyl)ethyl)pyrazine-2-carboxamide] | –
15 | – | > 5000 nM | > 10000 nM | C[C@H](NC(=O)c1cc(C#N)cnc1NCc1ccc(-c2ccc(NCCN(C)C)nc2)cc1)c1ccc(F)cc1 [Example 224, 5-Cyano-2-{4-[6-(2-dimethylamino-ethylamino)-pyridin-3-yl]-benzylamino}-N-[(S)-1-(4-fluoro-phenyl)-ethyl]-nicotinamide] | –
16 | – | < 100 nM | < 1000 nM | Cc1cc(F)ccc1NC(=O)c1cc(C(F)(F)F)cnc1NCc1ccc(-c2cnc3[nH]nc(N)c3c2)cc1 [Example 295, 2-(4-(3-amino-1H-pyrazolo [3,4-b]pyridin-5-yl)benzylamino)-N-(4-fluoro-2-methylphenyl)-5-(trifluoromethyl)nicotinamide] | –
17 | 100 to 1000 nM | – | – | C[C@H](NC(=O)c1nccnc1NCc1ccc(-c2cc3c(N)ncnc3cn2)s1)c1ccc(F)cc1 [Example 3.79, 3-({[5-(4-aminopyrido[3,4-d]pyrimidin-6-yl)thiophen-2-yl]methyl}amino)-N-[(1S)-1-(4-fluorophenyl)ethyl] pyrazine-2-carboxamide (TFA salt)] | EC50 ([1]; PC-3, 2 h, inhibition of P308 Akt in PC-3 cells, MSD): < 1000 nM
18 | – | < 100 nM | 1000 to 10000 nM | N#Cc1cnc(NCc2ccc(-c3ccc(N)nc3)cc2)c(C(=O)NCc2ccc(F)c(F)c2)n1 [Example 372, 3-(4-(6-aminopyridin-3-yl)benzylamino)-6-cyano-N-(3,4-difluorobenzyl)pyrazine-2-carboxamide] | –
19 | – | < 100 nM | 1000 to 10000 nM | C[C@H](NC(=O)c1cc(C#N)cnc1NCc1ccc(-c2cnc(N)c(CO)c2)cc1)c1ccc(F)cc1 [Example 136, (S)-2-(4-(6-amino-5-(hydroxymethyl)pyridin-3-yl)benzylamino)-5-cyano-N-(1-(4-fluorophenyl)ethyl)nicotinamide] | –
20 | – | < 100 nM | < 1000 nM | C[C@H](NC(=O)c1cc(C#N)cnc1NCc1ccc(-c2cnc(N)c(C(N)=O)c2)cc1)c1ccc(F)cc1 [Example 201, (S)-2-(4-(6-amino-5-carbamoylpyridin-3-yl)benzylamino)-5-cyano-N-(1-(4-fluorophenyl)ethyl)nicotinamide] | –
21 | – | < 100 nM | 1000 to 10000 nM | Nc1n[nH]c2ncc(-c3ccc(CNc4ncc(C(F)(F)F)cc4C(=O)Nc4cccc(C(F)(F)F)c4)cc3)cc12 [Example 294] | –
22 | – | < 100 nM | < 1000 nM | C[C@H](NC(=O)c1cc(C(F)(F)F)cnc1NCc1ccc(-c2cnc3[nH]c(=O)[nH]c3c2)cc1)c1ccc(F)c(F)c1 [Example 362, (S)-N-(1-(3,4-difluorophenyl)ethyl)-2-(4-(2-oxo-2,3-dihydro-1H-imidazo[4,5-b]pyridin-6-yl)benzylamino)-5-(trifluoromethyl)nicotinamide] | –
23 | – | < 100 nM | < 1000 nM | C[C@H](NC(=O)c1cc(C#N)cnc1NCc1ccc(-c2cnc3[nH]c(=O)[nH]c3c2)cc1)c1ccc(F)cc1 [Example 116, (S)-5-cyano-N-(1-(4-fluorophenyl)ethyl)-2-(4-(2-oxo-2,3-dihydro-1H-imidazo[4,5-b]pyridin-6-yl)benzyl-amino)nicotinamide] | –
24 | – | < 100 nM | < 1000 nM | Nc1ncnc2c1c(-c1ccc(CNc3ncc(C(F)(F)F)cc3C(=O)NCc3ccc(F)c(F)c3)cc1)cn2CCO [Example 333, 2-(4-(4-amino-7-(2-hydroxyethyl)-7H-pyrrolo[2,3-d]pyrimidin-5-yl)-benzylamino)-N-(3,4-difluorobenzyl)-5-(trifluoromethyl)nicotinamide] | –
25 | – | < 100 nM | > 10000 nM | C[C@H](NC(=O)c1nccnc1NCc1ccc(-c2ccc(N)nc2)cc1)c1ccc(F)cc1 [Example 371, (S)-3-(4-(6-aminopyridin-3-yl)benzylamino)-N-(1-(4-fluorophenyl)ethyl)pyrazine-2-carboxamide] | –
26 | – | < 100 nM | < 1000 nM | C[C@H](NC(=O)c1cc(C#N)cnc1NCc1ccc(-c2cnc(N)c(C(=O)NCCN(C)C)n2)cc1)c1ccc(F)cc1 [Example 212] | –
27 | – | < 100 nM | < 1000 nM | Nc1n[nH]c2ncc(-c3ccc(CNc4ncc(C(F)(F)F)cc4C(=O)Nc4ccc(C(F)(F)F)cc4)cc3)cc12 [Example 296] | –
28 | – | < 100 nM | – | Nc1n[nH]c2ncc(-c3ccc(CNc4ncc(C(F)(F)F)cc4C(=O)NCC4CCCO4)cc3)cc12 (centres unmarked) [Example 265, 2-(4-(3-amino-1H-pyrazolo [3,4-b]pyridin-5-yl)benzylamino)-N-((tetrahydrofuran-2-yl)methyl)-5-(trifluoromethyl) nicotinamide] | EC50 [1, 5]: 1000 to 10000 nM
